Measured values published in patent US4742047A, “Semi-synthetic peptide antibiotics” (Bristol-Myers Company, priority 1986, dated 1988).

Tests used:
P388 leukemia = assay: Antitumor effect against in vivo murine transplantable P388 leukemia; set-up: species or system mice
Description: (§1) Antitumor activity of representative compounds of the present invention was determined using in vivo murine transplantable P388 leukemia and B16 melanoma models.
P388 leukemia: female CDF1 and male BDF1 mice were inoculated by intraperitoneal injection of 0.8 ml diluted ascitic fluid containing 10^6 cells.
(§2) Test materials were dissolved in 0.9% saline containing 10% dimethyl sulfoxide and graded doses of them were administered to mice intraperitoneally 24 hrs after tumor implantation. Two dosing schedules were used for the p388 leukemia experiment: once daily on day 1 through day 3 (QD 1→3); and once daily on day 1 through day 9 (QD 1→9). The QD 1→9 schedule was used for the B16 melanoma experiment.
(§3) Antitumor activity is evaluated as the increase in mediam survival time (MST) of treated (T) and control (C) animals for various dosage regimens expressed as a percentage ratio (T/C %=MST of treated.div.MST of control×100). For both in vivo P388 leukemia and in vivo B16 melanoma models, values for percentage ratios of 125 and above indicate significant antitumor effect.

B16 melanoma = assay: Antitumor effect against in vivo murine B16 melanoma; set-up: species or system mice; conditions: QD 1→9 ip
Description: as §1
B16 melanoma; male BDF1 mice were implanted with 0.5 ml of a 10% tumor brei intraperitoneally.
as §2, §3

ddy mice = conditions: single intraperitoneal administration
Description: The acute toxicity for compounds of Examples 1, 2, and 3 was determined in ddy mice by single intraperitoneal administration.

SMILES | MST (% T/C) (P388 leukemia; 1 mg/kg/day, QD 1→3 ip) | MST (% T/C) (P388 leukemia; 3 mg/kg/day, QD 1→3 ip) | MST (% T/C) (P388 leukemia; 10 mg/kg/day, QD 1→3 ip) | MST (% T/C) (P388 leukemia; 0.13 mg/kg/day, QD 1→9 ip) | MST (% T/C) (P388 leukemia; 0.25 mg/kg/day, QD 1→9 ip) | MST (% T/C) (P388 leukemia; 0.5 mg/kg/day, QD 1→9 ip) | MST (% T/C) (P388 leukemia; 1 mg/kg/day, QD 1→9 ip) | MST (% T/C) (P388 leukemia; 2 mg/kg/day, QD 1→9 ip) | MST (% T/C) (P388 leukemia; 4 mg/kg/day, QD 1→9 ip) | MST (% T/C) (B16 melanoma; 1 mg/kg/day) | MST (% T/C) (B16 melanoma; 2 mg/kg/day) | MST (% T/C) (B16 melanoma; 4 mg/kg/day) | MST (% T/C) (B16 melanoma; .25 mg/kg/day) | MST (% T/C) (B16 melanoma; .5 mg/kg/day) | LD50 (ddy mice) | MST (% T/C) (P388 leukemia; 0.63 mg/kg/day, QD 1→9 ip) | MST (% T/C) (B16 melanoma; .13 mg/kg/day) | MST (% T/C) (P388 leukemia; .3 mg/kg/day, QD 1→3 ip)
CCCCCCCCCCCCCCCC(=O)N[C@H](C(=O)NC1CC(O)CCNC(=O)/C=C/C(C)NC1=O)[C@@H](C)O (stereo partly drawn) [Example 10, Palmitoyl-L-Threonyl-II] | 114 % T/C | 119 % T/C | 138 % T/C | – | – | – | – | – | – | – | – | – | – | – | – | – | – | –
CCCCCCCCCCCCCC(=O)N[C@H](C(=O)NC1CC(O)CCNC(=O)/C=C/C(C)NC1=O)[C@@H](C)O (stereo partly drawn) [Example 3, n-Tetradecanoyl-III] | 127 % T/C | 132 % T/C | 55 % T/C | 118 % T/C | 132 % T/C | 132 % T/C | 150 % T/C | 150 % T/C | 159 % T/C | 116 % T/C | 124 % T/C | 145 % T/C | 113 % T/C | 113 % T/C | > 25 mg/kg | – | – | –
CCCCCCCCCC=CC=CC(=O)NC(C(=O)NC1CC(O)CCNC(=O)C=CC(C)NC1=O)C(C)O (stereo not drawn) [BU-2867T C, reference compound] | 124 % T/C | 129 % T/C | 57 % T/C | 130 % T/C | 160 % T/C | 155 % T/C | 170 % T/C | 205 % T/C | 65 % T/C | 113 % T/C | 132 % T/C | Tox | 103 % T/C | 103 % T/C | – | 115 % T/C | 103 % T/C | –
CCCCCCCCCC(=O)N[C@H](C(=O)NC1CC(O)CCNC(=O)/C=C/C(C)NC1=O)[C@@H](C)O (stereo partly drawn) [Example 2, n-Decanoyl-III] | 123 % T/C | 127 % T/C | 64 % T/C | 109 % T/C | 123 % T/C | 123 % T/C | 127 % T/C | 145 % T/C | 155 % T/C | – | – | – | – | – | 50 mg/kg | – | – | –
CCCCCCCC=CC=CC(=O)NC(C(=O)NC1CC(O)CCNC(=O)C=CC(C)NC1=O)C(C)O (stereo not drawn) [BU-2867T A, reference compound] | 145 % T/C | Tox | – | 130 % T/C | 150 % T/C | 155 % T/C | 190 % T/C | Tox | – | 116 % T/C | Tox | – | 100 % T/C | 113 % T/C | – | 110 % T/C | 97 % T/C | 130 % T/C
CCCCCCCCC/C=C/C(=O)N[C@H](C(=O)NC1CC(O)CCNC(=O)/C=C/C(C)NC1=O)[C@@H](C)O (relative stereo) [Example 4, trans-2-Dodecenoyl-III] | 132 % T/C | 118 % T/C | – | – | – | – | – | – | – | – | – | – | – | – | – | – | – | 118 % T/C
CCCCCCCCCCCCCCC(O)C(=O)N[C@H](C(=O)NC1CC(O)CCNC(=O)/C=C/C(C)NC1=O)[C@@H](C)O (stereo partly drawn) [Example 5, 2-Hydroxy-hexadecanoyl-III] | 118 % T/C | 132 % T/C | 132 % T/C | – | – | – | – | – | – | – | – | – | – | – | – | – | – | –
CCCCCCCCOc1ccc(C(=O)N[C@H](C(=O)NC2CC(O)CCNC(=O)/C=C/C(C)NC2=O)[C@@H](C)O)cc1 (stereo partly drawn) [Example 6, p-n-Octyloxybenzoyl-III] | 150 % T/C | Tox | – | 140 % T/C | 150 % T/C | 155 % T/C | Tox | – | – | – | – | – | – | – | – | 120 % T/C | – | 125 % T/C
CCCCCCCCCCCC(=O)N[C@H](C(=O)NC1CC(O)CCNC(=O)/C=C/C(C)NC1=O)[C@@H](C)O (stereo partly drawn) [Example 1, n-Dodecanoyl-III] | 130 % T/C | 145 % T/C | 155 % T/C | 127 % T/C | 132 % T/C | 145 % T/C | 150 % T/C | 159 % T/C | 173 % T/C | 121 % T/C | 139 % T/C | 155 % T/C | 107 % T/C | 113 % T/C | 27 mg/kg | – | – | –
CCCCCC=CCCC=CC=CC(=O)NC(C(=O)NC1CC(O)CCNC(=O)C=CC(C)NC1=O)C(C)O (stereo not drawn) [BU-2867T B, reference compound] | – | – | – | 125 % T/C | 130 % T/C | 145 % T/C | 170 % T/C | 180 % T/C | Tox | 126 % T/C | Tox | – | 111 % T/C | 118 % T/C | – | 130 % T/C | 108 % T/C | –
